Assay results published in patent publication US9067934B2, “Bicyclic pyridinones” (Pfizer Inc., priority 2011, dated 2015).
Structures can show the parent of a compound that is named as a salt.

Each compound was assayed on production of amyloid beta protein Aβ(1-42) (γ-secretase) in human WT-APP overexpressing CHO cells (assay: Cell-Based γ-Secretase Assay with ELISA Readout). Conditions: CHO, 24 h, read-out: Aβ 42B IC50 (Geometric Mean of 2-6 Determinations).
Method in brief: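 Human WT-APP-overexpressing CHO cells were pre-cultured 24 h at 37° C, then exposed to compounds (eleven-point half-log series, 1% final DMSO) for ~24 h. Aβ(1-42) in conditioned media was captured with Aβ(1-42)-specific antibody and detected with Eu-labeled 6e10 by DELFIA TRF. IC50 by nonlinear regression against min/max inhibition controls.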

Structure (SMILES)	IC50
Cc1cn(-c2ccc3n(c2=O)CCN(CCOc2ccccc2[Si](C)(C)C)C3=O)cn1 [Example 121, 7-(4-methyl-1H-imidazol-1-yl)-2-{2-[2-(trimethylsilyl)phenoxy]ethyl}-3,4-dihydro-2H-pyrido[1,2-a]pyrazine-1,6-dione]	30.2 nM

Same assay, conditions: human WT-APP overexpressing CHO cells, ~24 hours at 37° C., Aβ(1-42) ELISA; footnotes: a = geometric mean of >15 determinations, b = single determination, c = geometric mean of 7-15 determinations; read-out: Aβ 42B IC50 (Geometric Mean of 2-6 Determinations)

Structure (SMILES)	IC50
Cc1cn(-c2ccc3n(c2=O)CCN(CCOc2cccc4nc(C(F)(F)F)sc24)C3=O)cn1 [Example 97, 7-(4-methyl-1H-imidazol-1-yl)-2-(2-{[2-(trifluoromethyl)-1,3-benzothiazol-7-yl]oxy}ethyl)-3,4-dihydro-2H-pyrido[1,2-a]pyrazine-1,6-dione, trifluoroacetate salt]	21.3 nM
Cc1cn(-c2ccc3n(c2=O)CCN(CCOc2ccc(F)c4ccc(F)cc24)C3=O)cn1 [Example 98, 2-{2-[(4,7-difluoronaphthalen-1-yl)oxy]ethyl}-7-(4-methyl-1H-imidazol-1-yl)-3,4-dihydro-2H-pyrido[1,2-a]pyrazine-1,6-dione]	19.4 nM
Cc1cn(-c2ccc3n(c2=O)CCN(CCOc2ncc(Cl)c4ccc(F)cc24)C3=O)cn1 [Example 99, 2-{2-[(4-chloro-7-fluoroisoquinolin-1-yl)oxy]ethyl}-7-(4-methyl-1H-imidazol-1-yl)-3,4-dihydro-2H-pyrido[1,2-a]pyrazine-1,6-dione, trifluoroacetate salt]	25.3 nM
CCC(COc1ccc(Cl)cc1C(F)(F)F)N1CCn2c(ccc(-n3cnc(C)c3)c2=O)C1=O (stereo not drawn) [Example 100, 2-{1-[4-chloro-2-(trifluoromethyl)phenoxy]butan-2-yl}-7-(4-methyl-1H-imidazol-1-yl)-3,4-dihydro-2H-pyrido[1,2-a]pyrazine-1,6-dione, trifluoroacetate salt]	135 nM
Cc1cn(-c2ccc3n(c2=O)CCN(CCOc2cccc4[nH]c(C(F)(F)F)cc24)C3=O)cn1 [Example 101, 7-(4-methyl-1H-imidazol-1-yl)-2-(2-{[2-(trifluoromethyl)-1H-indol-4-yl]oxy}ethyl)-3,4-dihydro-2H-pyrido[1,2-a]pyrazine-1,6-dione]	456 nM
Cc1cn(-c2ccc3n(c2=O)CCN(CCOc2cccc4c2cc(C(F)(F)F)n4C)C3=O)cn1 [Example 102, 7-(4-methyl-1H-imidazol-1-yl)-2-(2-{[1-methyl-2-(trifluoromethyl)-1H-indol-4-yl]oxy}ethyl)-3,4-dihydro-2H-pyrido[1,2-a]pyrazine-1,6-dione]	33.7 nM
CCC(COc1ccc(F)cc1C(F)(F)F)N1CCn2c(ccc(-n3cnc(C)c3)c2=O)C1=O (stereo not drawn) [Example 103, 2-{1-[4-fluoro-2-(trifluoromethyl)phenoxy]butan-2-yl}-7-(4-methyl-1H-imidazol-1-yl)-3,4-dihydro-2H-pyrido[1,2-a]pyrazine-1,6-dione]	596 nM
Cc1cn(-c2ccc3n(c2=O)CCN(CCOc2ccccc2-c2nc(C(F)(F)F)ns2)C3=O)cn1 [Example 104, 7-(4-methyl-1H-imidazol-1-yl)-2-(2-{2-[3-(trifluoromethyl)-1,2,4-thiadiazol-5-yl]phenoxy}ethyl)-3,4-dihydro-2H-pyrido[1,2-a]pyrazine-1,6-dione]	7.2 nM
Cc1cn(-c2ccc3n(c2=O)CCN(CCOc2ccc(F)cc2C(C)(C)C(F)(F)F)C3=O)cn1 [Example 105, 2-{2-[4-fluoro-2-(1,1,1-trifluoro-2-methylpropan-2-yl)phenoxy]ethyl}-7-(4-methyl-1H-imidazol-1-yl)-3,4-dihydro-2H-pyrido[1,2-a]pyrazine-1,6-dione]	25.2 nM
Cc1cn(-c2ccc3n(c2=O)CCN(CCOc2ccccc2C24CC(C2)C4)C3=O)cn1 [Example 106, 2-{2-[2-(bicyclo[1.1.1]pent-1-yl)phenoxy]ethyl}-7-(4-methyl-1H-imidazol-1-yl)-3,4-dihydro-2H-pyrido[1,2-a]pyrazine-1,6-dione]	27.4 nM
Cc1cn(-c2ccc3n(c2=O)CCN([C@@H](C)COc2ccc(Cl)cc2C(F)(F)F)C3=O)cn1 [Example 107, 2-{(2S)-1-[4-chloro-2-(trifluoromethyl)phenoxy]propan-2-yl}-7-(4-methyl-1H-imidazol-1-yl)-3,4-dihydro-2H-pyrido[1,2-a]pyrazine-1,6-dione]	34.4 nM
Cc1cn(-c2ccc3n(c2=O)CCN(CCOc2cccc4c2CC(F)(F)C4)C3=O)cn1 [Example 108, 2-{2-[(2,2-difluoro-2,3-dihydro-1H-inden-4-yl)oxy]ethyl}-7-(4-methyl-1H-imidazol-1-yl)-3,4-dihydro-2H-pyrido[1,2-a]pyrazine-1,6-dione]	46.8 nM
Cc1cn(-c2ccc3n(c2=O)CCN(CCOc2cccc4c2OC(F)(F)O4)C3=O)cn1 [Example 109, 2-{2-[(2,2-difluoro-1,3-benzodioxol-4-yl)oxy]ethyl}-7-(4-methyl-1H-imidazol-1-yl)-3,4-dihydro-2H-pyrido[1,2-a]pyrazine-1,6-dione]	275 nM
Cc1cn(-c2ccc3n(c2=O)CCN(CCOc2ccc(Cl)cc2C24CC(C2)C4)C3=O)cn1 [Example 110, 2-{2-[2-(bicyclo[1.1.1]pent-1-yl)-4-chlorophenoxy]ethyl}-7-(4-methyl-1H-imidazol-1-yl)-3,4-dihydro-2H-pyrido[1,2-a]pyrazine-1,6-dione]	14.5 nM
Cc1cn(-c2ccc3n(c2=O)CCCN(CCOc2ccc(Cl)cc2C(F)(F)F)C3=O)cn1 [Example 111, 2-{2-[4-chloro-2-(trifluoromethyl)phenoxy]ethyl}-8-(4-methyl-1H-imidazol-1-yl)-2,3,4,5-tetrahydropyrido[1,2-a][1,4]diazepine-1,7-dione]	138 nM
Cc1cn(-c2ccc3n(c2=O)[C@@H](C)CN(CCOc2ccc(F)cc2C(F)(F)F)C3=O)cn1 [Example 112, (4S)-2-{2-[4-fluoro-2-(trifluoromethyl)phenoxy]ethyl}-4-methyl-7-(4-methyl-1H-imidazol-1-yl)-3,4-dihydro-2H-pyrido[1,2-a]pyrazine-1,6-dione]	340 nM
O=C1c2ccc(-n3cnc(Cl)c3)c(=O)n2CCN1CCOc1ccc(Cl)cc1C(F)(F)F [Example 113, 7-(4-chloro-1H-imidazol-1-yl)-2-{2-[4-chloro-2-(trifluoromethyl)phenoxy]ethyl}-3,4-dihydro-2H-pyrido[1,2-a]pyrazine-1,6-dione]	292 nM
O=C1c2ccc(-n3cnc(Cl)c3)c(=O)n2CCN1CCOc1ccccc1C(F)(F)F [Example 114, 7-(4-chloro-1H-imidazol-1-yl)-2-{2-[2-(trifluoromethyl)phenoxy]ethyl}-3,4-dihydro-2H-pyrido[1,2-a]pyrazine-1,6-dione]	1320 nM
Cc1cc(-c2ccc3n(c2=O)CCN(CCOc2cccc4ccc(F)cc24)C3=O)ccn1 [Example 115, 2-{2-[(7-fluoronaphthalen-1-yl)oxy]ethyl}-7-(2-methylpyridin-4-yl)-3,4-dihydro-2H-pyrido[1,2-a]pyrazine-1,6-dione]	489 nM
Cc1cc(-c2ccc3n(c2=O)CCN(CCOc2ccc(Cl)cc2C(F)(F)F)C3=O)ccn1 [Example 116, 2-{2-[4-chloro-2-(trifluoromethyl)phenoxy]ethyl}-7-(2-methylpyridin-4-yl)-3,4-dihydro-2H-pyrido[1,2-a]pyrazine-1,6-dione]	3490 nM
Cc1cn(-c2ccc3n(c2=O)CCN([C@@H](C)COc2ccc(Cl)cc2C(C)(C)C(F)(F)F)C3=O)cn1 [Example 117, 2-{(2S)-1-[4-Chloro-2-(1,1,1-trifluoro-2-methylpropan-2-yl)phenoxy]propan-2-yl}-7-(4-methyl-1H-imidazol-1-yl)-3,4-dihydro-2H-pyrido[1,2-a]pyrazine-1,6-dione]	3.54 nM
Cc1cn(-c2ccc3n(c2=O)CCN([C@@H](C)COc2ccc(F)cc2[C@@H](C)C(F)(F)F)C3=O)cn1 [Example 118, 2-[(2S)-1-{4-Fluoro-2-[(2R)-1,1,1-trifluoropropan-2-yl]phenoxy}propan-2-yl]-7-(4-methyl-1H-imidazol-1-yl)-3,4-dihydro-2H-pyrido[1,2-a]pyrazine-1,6-dione]	< 6.64 nM
Cc1cn(-c2ccc3n(c2=O)CCN([C@@H](C)COc2ccc(Cl)cc2S(F)(F)(F)(F)F)C3=O)cn1 [Example 119, 2-{(2S)-1-[4-Chloro-2-(pentafluoro-λ^6-sulfanyl)phenoxy]propan-2-yl}-7-(4-methyl-1H-imidazol-1-yl)-3,4-dihydro-2H-pyrido[1,2-a]pyrazine-1,6-dione]	7.49 nM
Cc1cn(-c2ccc3n(c2=O)CCN([C@@H](C)COc2ccccc2S(F)(F)(F)(F)F)C3=O)cn1 [Example 120, 7-(4-methyl-1H-imidazol-1-yl)-2-{(2S)-1-[2-(pentafluoro-λ^6-sulfanyl)phenoxy]propan-2-yl}-3,4-dihydro-2H-pyrido[1,2-a]pyrazine-1,6-dione]	17.8 nM
Cc1cn(-c2ccc3n(c2=O)CCN(CCOc2ccc(F)cc2C2(C(F)(F)F)CCO2)C3=O)cn1 (stereo not drawn) [Example 122, 2-(2-{4-fluoro-2-[2-(trifluoromethyl)oxetan-2-yl]phenoxy}ethyl)-7-(4-methyl-1H-imidazol-1-yl)-3,4-dihydro-2H-pyrido[1,2-a]pyrazine-1,6-dione, trifluoroacetate salt]	85.6 nM
Cc1cn(-c2ccc3n(c2=O)CCN(C(C)C(C)Oc2ccccc2S(F)(F)(F)(F)F)C3=O)cn1 (stereo not drawn) [Example 123, 7-(4-methyl-1H-imidazol-1-yl)-2-{3-[2-(pentafluoro-λ^6-sulfanyl)phenoxy]butan-2-yl}-3,4-dihydro-2H-pyrido[1,2-a]pyrazine-1,6-dione]	106 nM
